Like-named read-outs stand apart in the source and are kept apart here.

This assay in a line: Equilibrium (dissociation constant) of probe and GSH reaction, UV-Vis/fluorescence. Format: binding. On the procedure:
Applicants also determined Keq between TQ Green and GSH and the relationship of the ratiometric change as a function of GSH concentration. Kd′ is the apparent dissociation constant for the reaction between TQ Green and GSH. The following equation can be derived:
Plotting (R−Rmin)/(Rmax−R) as a function of GSH concentration afforded a superb linear relationship with r^2=0.999 (FIGS. 6-7).
TQ Green was dissolved in PBS buffer (10 mM, pH 7.4) containing 1% DMSO with concentration at 32 μM. GSH was dissolved in the same PBS buffer with concentration from 0-80 mM. Above solutions were mixed at 1:1 ratio. All solutions were protected with nitrogen and stored in glove box to prevent any oxygen entering the solution. Samples of all solutions were taken out at 1, 18, 72, and 144 hours after mixing. UV-Vis and fluorescence were measured for all solutions.
Compounds 3b-d were dissolved in DMSO (10 mM) and 1 eq of 2 M β-mercaptoethanol (BME) was added. Compounds 3a and TQ Green were dissolved in PBS buffer (10 mM, pH 7.4) with 1% DMSO. GSH solution was added to reach a final concentration of 80 mM with compound 3a at 10 μM and TQ Green at 16 μM, respectively. All solutions were then monitored continuously with UV-Vis and fluorimeter for 2 hours (Table 1).

As for `CCN(CC)c1ccc2cc(/C=C/C(=O)c3ccc(C(=O)O)cc3Br)c(=O)oc2c1` [TQ Green], the Kd stood at 1.6 mM (deduced from Kd′ and absorption values at 488 nm, read-out: Kd (equilibrium dissociation constant)); 14.8 mM (reaction with various concentration of GSH in water/PBS pH 7.4, based on UV-Vis, read-out: Kd′ observed (apparent) dissociation constant).

The values above are taken from patent US10921327B2, “Probes for quantitative imaging of thiols in various environments” (Baylor College of Medicine, priority 2014, dated 2021).
